# Measured values from PubChem BioAssay AID2060885 (Molecular Pharmacology Branch, DTP, NCI, 2025).
# Test system: NCI-H23 complex spheroids with HUVEC/MSC, viability
# Test: Anticancer human tumor NCI-H23 cell line growth inhibition [RAS];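 further: spheroids exposed to compound for 7 days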;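 on viability, T/C: 100% = DMSO vehicle control viability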
# Details: for IC50: curve of first compound; for viability, T/C: stronger effect = lower value
# How it was run: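 Agents were tested in combination matrices in half-log decrements from a top concentration at or near clinical Cmax (10 microM if undetermined). Targets were multi-cell spheroids of tumour lines plus HUVEC and MSC stromal cells.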
# [1] = second compound 0.000949 µM, first compound 0.0316 µM
# [2] = second compound 0.000949 µM, first compound 0.1 µM
# [3] = second compound 0.003 µM, first compound 0.0316 µM
# [4] = second compound 0.003 µM, first compound 0.1 µM
# [5] = second compound 0.00949 µM, first compound 0.0316 µM
# [6] = second compound 0.00949 µM, first compound 0.1 µM
# [7] = second compound 0.03 µM, first compound 0.0316 µM
# [8] = second compound 0.03 µM, first compound 0.1 µM
# [9] = second compound 0.0949 µM, first compound 0.0316 µM
# [10] = second compound 0.0949 µM, first compound 0.1 µM
# [11] = second compound 0.3 µM, first compound 0.0316 µM
# [12] = second compound 0.3 µM, first compound 0.1 µM
structure (smiles),measurement,setting,value
CC(C)n1nc(-c2ccc3oc(N)nc3c2)c2c(N)ncnc21 + CCn1c(-c2cc(N3CCN(C)CC3)cnc2C(C)OC)c2c3cc(ccc31)-c1csc(n1)CC(NC(=O)C1CC1C)C(=O)N1CCCC(N1)C(=O)OCC(C)(C)C2,IC50,second compound 0.000949 µM,< 0.316 nM
same,IC50,second compound 0.003 µM,< 0.316 nM
same,IC50,second compound 0.00949 µM,< 0.316 nM
same,IC50,second compound 0.03 µM,< 0.316 nM
same,IC50,second compound 0.0949 µM,< 0.316 nM
same,IC50,second compound 0.3 µM,< 0.316 nM
same,"viability, T/C","second compound 0.000949 µM, first compound 0.000316 µM",44.2%
same,"viability, T/C","second compound 0.000949 µM, first compound 0.001 µM",41.7%
same,"viability, T/C","second compound 0.000949 µM, first compound 0.00316 µM",24.1%
same,"viability, T/C","second compound 0.000949 µM, first compound 0.01 µM",30%
same,"viability, T/C",[1],24.2%
same,"viability, T/C",[2],13.5%
same,"viability, T/C","second compound 0.003 µM, first compound 0.000316 µM",32.4%
same,"viability, T/C","second compound 0.003 µM, first compound 0.001 µM",24.6%
same,"viability, T/C","second compound 0.003 µM, first compound 0.00316 µM",25.8%
same,"viability, T/C","second compound 0.003 µM, first compound 0.01 µM",21.6%
same,"viability, T/C",[3],19%
same,"viability, T/C",[4],9.18%
same,"viability, T/C","second compound 0.00949 µM, first compound 0.000316 µM",31.2%
same,"viability, T/C","second compound 0.00949 µM, first compound 0.001 µM",26.8%
same,"viability, T/C","second compound 0.00949 µM, first compound 0.00316 µM",24.1%
same,"viability, T/C","second compound 0.00949 µM, first compound 0.01 µM",20%
same,"viability, T/C",[5],16.4%
same,"viability, T/C",[6],11.4%
same,"viability, T/C","second compound 0.03 µM, first compound 0.000316 µM",24.5%
same,"viability, T/C","second compound 0.03 µM, first compound 0.001 µM",25.2%
same,"viability, T/C","second compound 0.03 µM, first compound 0.00316 µM",22.7%
same,"viability, T/C","second compound 0.03 µM, first compound 0.01 µM",19%
same,"viability, T/C",[7],11.7%
same,"viability, T/C",[8],11.6%
same,"viability, T/C","second compound 0.0949 µM, first compound 0.000316 µM",19.2%
same,"viability, T/C","second compound 0.0949 µM, first compound 0.001 µM",19.4%
same,"viability, T/C","second compound 0.0949 µM, first compound 0.00316 µM",19.2%
same,"viability, T/C","second compound 0.0949 µM, first compound 0.01 µM",16.6%
same,"viability, T/C",[9],9.51%
same,"viability, T/C",[10],11.2%
same,"viability, T/C","second compound 0.3 µM, first compound 0.000316 µM",17.9%
same,"viability, T/C","second compound 0.3 µM, first compound 0.001 µM",17%
same,"viability, T/C","second compound 0.3 µM, first compound 0.00316 µM",16.4%
same,"viability, T/C","second compound 0.3 µM, first compound 0.01 µM",13.4%
same,"viability, T/C",[11],13.5%
same,"viability, T/C",[12],11.5%
C[C@@H](NC(=O)c1ncnc(N)c1Cl)c1ncc(C(=O)Nc2cc(C(F)(F)F)c(Cl)cn2)s1 + CCn1c(-c2cc(N3CCN(C)CC3)cnc2C(C)OC)c2c3cc(ccc31)-c1csc(n1)CC(NC(=O)C1CC1C)C(=O)N1CCCC(N1)C(=O)OCC(C)(C)C2,IC50,second compound 0.000949 µM,1530 nM
same,IC50,second compound 0.003 µM,< 31.6 nM
same,IC50,second compound 0.00949 µM,< 31.6 nM
same,IC50,second compound 0.03 µM,< 31.6 nM
same,IC50,second compound 0.0949 µM,< 31.6 nM
same,IC50,second compound 0.3 µM,< 31.6 nM
same,"viability, T/C",[1],51.5%
same,"viability, T/C",[2],54.4%
same,"viability, T/C","second compound 0.000949 µM, first compound 0.316 µM",46.1%
same,"viability, T/C","second compound 0.000949 µM, first compound 1 µM",48.4%
same,"viability, T/C","second compound 0.000949 µM, first compound 3.16 µM",49.9%
same,"viability, T/C","second compound 0.000949 µM, first compound 10 µM",25%
same,"viability, T/C",[3],39.7%
same,"viability, T/C",[4],33%
same,"viability, T/C","second compound 0.003 µM, first compound 0.316 µM",33.9%
same,"viability, T/C","second compound 0.003 µM, first compound 1 µM",37.2%
same,"viability, T/C","second compound 0.003 µM, first compound 3.16 µM",38.5%
same,"viability, T/C","second compound 0.003 µM, first compound 10 µM",24.6%
same,"viability, T/C",[5],35.3%
same,"viability, T/C",[6],29.5%
same,"viability, T/C","second compound 0.00949 µM, first compound 0.316 µM",32.5%
same,"viability, T/C","second compound 0.00949 µM, first compound 1 µM",32.8%
same,"viability, T/C","second compound 0.00949 µM, first compound 3.16 µM",31.7%
same,"viability, T/C","second compound 0.00949 µM, first compound 10 µM",27%
same,"viability, T/C",[7],29.4%
same,"viability, T/C",[8],27.8%
same,"viability, T/C","second compound 0.03 µM, first compound 0.316 µM",31.3%
same,"viability, T/C","second compound 0.03 µM, first compound 1 µM",30.7%
same,"viability, T/C","second compound 0.03 µM, first compound 3.16 µM",29.3%
same,"viability, T/C","second compound 0.03 µM, first compound 10 µM",25.2%
same,"viability, T/C",[9],21.1%
same,"viability, T/C",[10],22.3%
same,"viability, T/C","second compound 0.0949 µM, first compound 0.316 µM",26.3%
same,"viability, T/C","second compound 0.0949 µM, first compound 1 µM",28.4%
same,"viability, T/C","second compound 0.0949 µM, first compound 3.16 µM",21.8%
same,"viability, T/C","second compound 0.0949 µM, first compound 10 µM",24.2%
same,"viability, T/C",[11],22.6%
same,"viability, T/C",[12],24.4%
same,"viability, T/C","second compound 0.3 µM, first compound 0.316 µM",24.2%
same,"viability, T/C","second compound 0.3 µM, first compound 1 µM",22.7%
same,"viability, T/C","second compound 0.3 µM, first compound 3.16 µM",25.4%
same,"viability, T/C","second compound 0.3 µM, first compound 10 µM",21.9%
